Assay results taken from PubChem BioAssay (NCI).
Where “and” joins values, the source holds several entries; their conditions need not be identical. Equal values may be shown once.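 48-hour exposure; five concentrations; linearly interpolated endpoints. The concentration for 50% growth inhibition is given as GI50. TGI is the concentration that stops growth completely.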

Legend:
Test in all cases: NCI-60 cell line screen, 48 h
MOLT-4 leukemia = system: MOLT-4 leukemia
SK-OV-3 ovarian = system: SK-OV-3 ovarian
SF-295 CNS = system: SF-295 CNS
HOP-92 NSCLC = system: HOP-92 NSCLC
KM12 colon = system: KM12 colon
U251 CNS = system: U251 CNS
SNB-19 CNS = system: SNB-19 CNS
OVCAR-4 ovarian = system: OVCAR-4 ovarian
TK-10 renal = system: TK-10 renal
OVCAR-3 ovarian = system: OVCAR-3 ovarian

Row | Structure (SMILES) | TGI (MOLT-4 leukemia) | TGI (SK-OV-3 ovarian) [µM] | TGI (SF-295 CNS) [µM] | TGI (HOP-92 NSCLC) [µM] | TGI (KM12 colon) [µM] | TGI (U251 CNS) [µM] | TGI (SNB-19 CNS) [µM] | TGI (OVCAR-4 ovarian) | TGI (TK-10 renal) [µM] | TGI (OVCAR-3 ovarian) | GI50 (MOLT-4 leukemia) [µM] | GI50 (SK-OV-3 ovarian) | GI50 (SF-295 CNS) | GI50 (HOP-92 NSCLC) | GI50 (KM12 colon) | GI50 (U251 CNS) | GI50 (SNB-19 CNS) [µM] | GI50 (OVCAR-4 ovarian) | GI50 (TK-10 renal) [µM] | GI50 (OVCAR-3 ovarian)
1 | Cc1ccc(S(=O)(=O)NNC(=O)c2cc(C)ccc2NC(=O)C23CC4CC(CC(C4)C2)C3)cc1 | > 100 µM | 68.5 | > 100 | 91.5 | > 100 | > 100 | 57.2 | 78.5 µM | > 100 | > 100 µM | – | – | – | – | – | – | – | – | – | –
2 | COc1cccc(CC(C)NCC(O)c2ccc(O)c(O)c2)c1 (centres undefined) | 51.7 µM | > 100 | > 100 | > 100 | > 100 | > 100 | > 100 | > 100 µM | > 100 | > 100 µM | – | – | – | – | – | – | – | – | – | –
3 | O=C1CCC2(CCO1)OCCO2 | > 100 µM | > 100 | > 100 | – | > 100 | > 100 | > 100 | > 100 µM | > 100 | > 100 µM | – | – | – | – | – | – | – | – | – | –
4 | N#CC(C#N)=C1C(C#N)=C(N)NC12OCCO2 | > 100 µM | > 100 | > 100 | > 100 | > 100 | > 100 | > 100 | > 100 µM | > 100 | – | – | – | – | – | – | – | – | – | – | –
5 | O=C1NC(=O)/C(=C/c2ccc(S(=O)(=O)N/N=C/c3ccc(Cl)cc3)cc2)N1 | > 100 µM | > 100 | > 100 | > 100 | > 100 | > 100 | > 100 | > 100 µM | > 100 | > 100 µM | – | – | – | – | – | – | – | – | – | –
6 | CC1OC2=N[C@@H]1C(=O)N[C@@H](C(C)C)C1=N[C@H](C(=O)N[C@@H](C(C)C)C3=N[C@H](C(=O)N[C@@H](C(C)C)C4=N[C@H](C(=O)N[C@H]2C(C)C)C(C)O4)C(C)O3)C(C)O1 (some centres undefined) | > 10 µM | > 10 | > 10 | > 10 | > 10 | > 10 | > 10 | > 10 µM | > 10 | > 10 µM | – | – | – | – | – | – | – | – | – | –
7 | COc1cc2c(cc1OCCCC(=O)Nc1cc(C(=O)Nc3cc(C(=O)Nc4cc(C(=O)NCCCN(C)C)n(C)n4)n(C)n3)n(C)n1)N=CC1CCCN1C2=O (centres undefined) | > 100 µM | > 100 | 86.6 | > 100 | 47 | > 100 | 54.4 | 35.7 µM | 40.7 | > 100 µM | – | – | – | – | – | – | – | – | – | –
8 | CCOC(=O)c1c(N2CCCC2)ncn(-c2ccccc2)c1=S | > 100 µM | > 100 | > 100 | > 100 | > 100 | > 100 | > 100 | > 100 µM | > 100 | > 100 µM | – | – | – | – | – | – | – | – | – | –
9 | Cc1cc(/C=C\c2ccc3ccccc3[n+]2C)c(O)c2ncccc12 | > 100 µM | 4.84 | 1.44 | 4.48 | 1.34 | > 100 | 27.4 | 1.73 µM | 6.54 | 0.569 µM | 0.4 | 1.68 µM | 0.0827 µM | 0.0995 µM | 0.182 µM | 0.537 µM | 0.494 | 0.323 µM | 0.814 | 0.176 µM
10 | O=C(NCc1cccc(C(F)(F)F)c1)c1cc2sccc2nc1C(F)(F)F | > 100 µM | > 100 | > 100 | > 100 | > 100 | > 100 | > 100 | > 100 µM | > 100 | > 100 µM | – | – | – | – | – | – | – | – | – | –
11 | [Cl][Pt+2][Cl].[NH-]C1CCCCC1[NH-] (centres undefined) | > 51.2 µM and > 96.6 µM and 37.9 µM | > 100 | > 100 | > 100 | > 100 | > 100 | > 100 | 64.2 µM and 90.5 µM and 47.1 µM | – | > 59.4 µM and > 47.2 µM and 20.8 µM | – | 18.5 µM and > 80.9 µM and 25.1 µM | 6.32 µM and 5.35 µM and 1.06 µM | 35.3 µM and > 100 µM and 29.7 µM | 80.6 µM and > 72.1 µM and 10.6 µM | 21 µM and 9.15 µM and 13.2 µM | – | 14.5 µM and 9.24 µM and 2.19 µM | – | 9.42 µM and 6.62 µM and 2.98 µM
12 | O=C(CCN1CCCC1)Nc1ccc2sc3ccccc3c(=O)c2n1 | 17.7 µM | 14.3 | 27.8 | 60.4 | 18.3 | 18.5 | 19.6 | 21.7 µM | – | 20.5 µM | – | – | – | – | – | – | – | – | – | –
13 | C/C(=N\NC(=S)N1CCCCC1)c1cccc(C)n1 | > 100 µM | – | > 33.4 | 11.3 | 17.5 | 11.5 | > 36 | 51.6 µM | 21.3 | 12.1 µM | – | – | – | – | – | – | – | – | – | –
14 | Cc1cccc2c1[nH]c1[nH]c(=O)[nH]c(=O)c12 | > 100 µM | > 100 | > 100 | > 100 | > 100 | – | > 100 | > 100 µM | > 100 | > 100 µM | – | – | – | – | – | – | – | – | – | –
15 | Cc1ccc(C(C)(C)C[P+](C)(c2ccccc2)c2ccccc2)cc1 | 42.7 µM | 64.2 | > 85.2 | 9.5 | > 45.7 | > 100 | 89.3 | 63.7 µM | – | 22.2 µM | – | – | – | – | – | – | – | – | – | –
16 | N/N=C1/C2CN3CCN(C2)CC1(c1ccc([N+](=O)[O-])cc1)C3 | > 100 µM | – | > 100 | – | > 100 | > 100 | > 100 | > 100 µM | > 100 | > 100 µM | – | – | – | – | – | – | – | – | – | –
17 | CCOC(=O)C(=[N+]=[N-])C(=O)Nc1nn2nnnc2c2ccccc12 | > 100 µM | > 100 | > 100 | > 100 | > 100 | > 100 | > 100 | > 100 µM | – | > 100 µM | – | – | – | – | – | – | – | – | – | –
18 | CC1(C)OCC(C(O)C2OC(C)(C)OC2C=O)O1 (centres undefined) | > 100 µM | > 100 | > 100 | – | > 100 | > 100 | > 100 | > 100 µM | > 100 | > 100 µM | – | – | – | – | – | – | – | – | – | –
19 | O=[N+]([O-])c1ccc(S[C@@H]2[C@H]3c4c(-c5ccccc5)[nH]c(-c5ccccc5)c4[C@@H]2C[C@H]3Cl)cc1 | – | > 100 | > 100 | > 100 | 12.3 | > 100 | > 100 | 5.4 µM | > 100 | 35.8 µM | – | – | – | – | – | – | – | – | – | –
20 | CC(=O)Nc1ccc(C(=O)NN2C(=O)C(Cl)C2c2ccc([N+](=O)[O-])cc2)cc1 (centres undefined) | > 100 µM | > 100 | > 100 | > 100 | – | > 100 | > 100 | > 100 µM | > 100 | > 100 µM | – | – | – | – | – | – | – | – | – | –
